Results: US20110081315A1, “NOVEL MACROCYCLIC INHIBITORS OF HEPATITIS C VIRUS REPLICATION” (INTERMUNE, INC., priority 2009, published 2011)
Like-named read-outs stand apart in the source and are kept apart here.

Experiments:
[1] = test system: hepatitis C replicon; test: hepatitis C replicon EC50 assay; format: cell-based; settings: Hepatitis C virus
Text: (§1) NS3-NS4 inhibition activity can be determined using known assay methods. For example, NS3/NS4 complexes may be formed and inhibitory concentrations of test compounds determined as described in U.S. Patent Application Publication Number 2007/0054842 paragraph numbers 1497-1509, which is incorporated herein by reference in its entirety. Similarly, hepatitis C replicon EC50 may be determined using known assay methods such as described in U.S. Patent Application Publication Number 2007/0054842 paragraph numbers 1510-1515, which is incorporated herein by reference in its entirety. Assays may be conducted at ambient temperature (23° C.) in assay buffer containing 50 mM Tris-HCl, pH 7.5, 15% glycerol, 0.6 mM Lauryldimethylamine Oxide (LDAO), 25 μM NS4A peptide, and 10 mM Dithiothreitol (DTT).

[2] = target: NS3/NS4 complexes (Hepatitis C virus genotype 1a, UniProt P27958); test: NS3/NS4 inhibition assay (IC50); format: biochemical; settings: NS3/NS4 activity; 23° C., 25 μM NS4A peptide
Text: as §1

[3] = hepatitis C replicon, read-out: EC50

Chain of NS3/NS4 complexes (P27958 1027-1657, one chain of several): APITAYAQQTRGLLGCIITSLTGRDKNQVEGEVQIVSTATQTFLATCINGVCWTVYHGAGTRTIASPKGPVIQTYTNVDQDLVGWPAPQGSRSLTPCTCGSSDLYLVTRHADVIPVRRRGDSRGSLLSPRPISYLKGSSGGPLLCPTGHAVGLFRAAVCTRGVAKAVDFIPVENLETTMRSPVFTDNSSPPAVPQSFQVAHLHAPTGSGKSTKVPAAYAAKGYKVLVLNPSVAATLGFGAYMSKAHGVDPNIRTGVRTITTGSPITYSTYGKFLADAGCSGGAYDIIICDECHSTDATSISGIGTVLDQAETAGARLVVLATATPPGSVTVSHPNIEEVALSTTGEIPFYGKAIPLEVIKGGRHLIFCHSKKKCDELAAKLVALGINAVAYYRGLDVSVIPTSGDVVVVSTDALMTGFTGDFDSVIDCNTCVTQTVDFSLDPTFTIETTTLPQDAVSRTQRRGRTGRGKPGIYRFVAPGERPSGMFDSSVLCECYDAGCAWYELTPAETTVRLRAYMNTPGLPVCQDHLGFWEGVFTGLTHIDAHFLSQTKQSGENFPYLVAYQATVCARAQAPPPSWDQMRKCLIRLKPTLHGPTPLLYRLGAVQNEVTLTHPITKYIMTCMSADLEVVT

Row | Structure (SMILES) | EC50 [1, 3] [nM] | IC50 [2] [nM] | EC50 [1] [nM]
1 | CC(C)(C)OC(=O)N[C@H]1CCCCC/C=C\[C@@H]2C[C@@]2(C(=O)NS(=O)(=O)C2(C)CC2)NC(=O)[C@@H]2C[C@@H](Oc3ccc4ncn(-c5ccccc5)c4c3)CN2C1=O [Compound 299] | 10 to 100 | < 10 | –
2 | Cc1nc2ccccc2nc1O[C@@H]1C[C@H]2C(=O)N[C@]3(C(=O)NS(=O)(=O)C4(C)CC4)C[C@H]3/C=C\CCCCC[C@H](Nc3ccccc3)C(=O)N2C1 [Compound 310] | 10 to 100 | < 10 | –
3 | CC(C)c1nc(-c2cccc3c2nc(O[C@@H]2C[C@H]4C(=O)N[C@]5(C(=O)NS(=O)(=O)C6(C)CC6)C[C@H]5/C=C\CCCCC[C@H](NC(=O)OC(C)(C)C)C(=O)N4C2)n3C(C)C)sc1C(C)C [Compound 1213] | 10 to 100 | < 10 | –
4 | CCc1csc(-c2cccc3c2nc(O[C@@H]2C[C@H]4C(=O)N[C@]5(C(=O)NS(=O)(=O)N(C)C)C[C@H]5/C=C\CCCCC[C@H](NC(=O)OC(C)(C)C)C(=O)N4C2)n3C(C)C)n1 [Compound 292] | < 10 | < 10 | –
5 | CC(C)n1c(O[C@@H]2C[C@H]3C(=O)N[C@]4(C(=O)NS(=O)(=O)N(C)C)C[C@H]4/C=C\CCCCC[C@H](NC(=O)OC(C)(C)C)C(=O)N3C2)nc2cc(-c3ccccc3)ccc21 [Compound 262] | 10 to 100 | < 10 | –
6 | COc1ccc2c(O[C@@H]3C[C@H]4C(=O)N[C@]5(C(=O)NS(=O)(=O)C6(C)CC6)C[C@H]5/C=C\CCCCC[C@H](Nc5cccc(C(=O)N6CCN(C(c7ccccc7)c7ccccc7)CC6)c5)C(=O)N4C3)cc(-c3nc(C(C)C)cs3)nc2c1C [Compound 114] | < 10 | < 10 | –
7 | CC1(S(=O)(=O)NC(=O)[C@@]23C[C@H]2/C=C\CCCCC[C@H](Nc2ccccc2)C(=O)N2C[C@H](n4cc(-c5ccccc5)nn4)C[C@H]2C(=O)N3)CC1 [Compound 1504] | > 100 | 10 to 100 | –
8 | COc1cnc(O[C@@H]2C[C@H]3C(=O)N[C@]4(C(=O)NS(=O)(=O)C5(C)CC5)C[C@H]4/C=C\CCCCC[C@H](Nc4cccc(F)c4)C(=O)N3C2)c2cc(Cl)ccc12 [Compound 1101] | < 10 | < 10 | –
9 | CC(C)n1c(O[C@@H]2C[C@H]3C(=O)N[C@]4(C(=O)O)C[C@H]4/C=C\CCCCC[C@H](Nc4ccc(F)cc4)C(=O)N3C2)nc2c(-c3nc(C4CCCC4)cs3)cccc21 [Compound 1762] | > 100 | 10 to 100 | –
10 | CC(C)n1c(O[C@@H]2C[C@H]3C(=O)N[C@]4(C(=O)NS(=O)(=O)C5(C)CC5)C[C@H]4/C=C\CCCCC[C@H](Nc4ccccc4)C(=O)N3C2)nc2c(-c3ccccc3F)cccc21 [Compound 242] | 10 to 100 | < 10 | –
11 | CC(C)c1csc(-c2cccc3c2nc(O[C@@H]2C[C@H]4C(=O)N[C@]5(C(=O)NS(=O)(=O)C6(C)CC6)C[C@H]5/C=C\CCCCC[C@H](Nc5nccs5)C(=O)N4C2)n3C(C)C)n1 [Compound 1418] | < 10 | < 10 | –
12 | CC(C)n1c(O[C@@H]2C[C@H]3C(=O)N[C@]4(C(=O)NS(=O)(=O)N(C)C)C[C@H]4/C=C\CCCCC[C@H](NC(=O)OC(C)(C)C)C(=O)N3C2)nc2c(NC(=O)Nc3ccccc3)cccc21 [Compound 1420] | – | < 10 | < 10
13 | CC(C)n1c(O[C@@H]2C[C@H]3C(=O)N[C@]4(C(=O)NS(=O)(=O)C5(C)CC5)C[C@H]4/C=C\CCCCC[C@H](NC(=O)OC(C)(C)C)C(=O)N3C2)nc2c(-c3csc(-c4ccccc4)n3)cccc21 [Compound 1701] | 10 to 100 | < 10 | –
14 | CC(C)n1c(O[C@@H]2C[C@H]3C(=O)N[C@]4(C(=O)NS(=O)(=O)N(C)C)C[C@H]4/C=C\CCCCC[C@H](NC(=O)OC(C)(C)C)C(=O)N3C2)nc2c(-c3nc(C4CCC4)cs3)cccc21 [Compound 1766] | < 10 | < 10 | –
15 | CC(C)n1c(O[C@@H]2C[C@H]3C(=O)N[C@]4(C(=O)NS(=O)(=O)C5(C)CC5)C[C@H]4/C=C\CCCCC[C@H](Nc4ccccc4)C(=O)N3C2)nc2c(C(F)(F)F)cccc21 [Compound 204] | 10 to 100 | < 10 | –
16 | CC(C)n1c(O[C@@H]2C[C@H]3C(=O)N[C@]4(C(=O)NS(=O)(=O)C5(C)CC5)C[C@H]4/C=C\CCCCC[C@H](Nc4ccccc4)C(=O)N3C2)nc2c(C(=O)O)cccc21 [Compound 267] | > 100 | < 10 | –
17 | COc1cccc2c1nc(O[C@@H]1C[C@H]3C(=O)N[C@]4(C(=O)NS(=O)(=O)N(C)C)C[C@H]4/C=C\CCCCC[C@H](NC(=O)OC(C)(C)C)C(=O)N3C1)n2C(C)C [Compound 286] | < 10 | < 10 | –
18 | CC(C)(C)OC(=O)N[C@H]1CCCCC/C=C\[C@@H]2C[C@@]2(C(=O)NS(=O)(=O)C2(C)CC2)NC(=O)[C@@H]2C[C@@H](n3nnc(-c4ccccc4)n3)CN2C1=O [Compound 801] | 10 to 100 | < 10 | –

Row | Structure (SMILES) | EC50 [1, 3] [nM] | IC50 [2] [nM] | EC50 [1] [nM]
19 | CC(C)n1c(O[C@@H]2C[C@H]3C(=O)N[C@]4(C(=O)NS(=O)(=O)N(C)C)C[C@H]4/C=C\CCCCC[C@H](NC(=O)OC(C)(C)C)C(=O)N3C2)nc2c(-c3nc(Cc4ccc(F)cc4)cs3)cccc21 [Compound 1759] | < 10 | < 10 | –
20 | CC(C)(C)OC(=O)N[C@H]1CCCCC/C=C\[C@@H]2C[C@@]2(C(=O)NS(=O)(=O)C2(C)CC2)NC(=O)[C@@H]2C[C@@H](Oc3ccc4c(c3)ncn4-c3ccccc3)CN2C1=O [Compound 294] | > 100 | < 10 | –
21 | COc1ccc2c(O[C@@H]3C[C@H]4C(=O)N[C@]5(C(=O)NS(=O)(=O)C6(C)CC6)C[C@H]5/C=C\CCCCC[C@H](Nc5cccc(C(=O)N6CCOCC6)c5)C(=O)N4C3)cc(-c3nc(C(C)C)cs3)nc2c1C [Compound 105] | < 10 | < 10 | –
22 | COc1ccc2c(O[C@@H]3C[C@H]4C(=O)N[C@]5(C(=O)NS(=O)(=O)C6(C)CC6)C[C@H]5/C=C\CCCCC[C@H](Nc5cccc(C(=O)N6CCN(C(=O)C7CC7)CC6)c5)C(=O)N4C3)cc(-c3nc(C(C)C)cs3)nc2c1C [Compound 119] | < 10 | < 10 | –
23 | CCNC(=O)c1cccc2c1nc(O[C@@H]1C[C@H]3C(=O)N[C@]4(C(=O)NS(=O)(=O)C5(C)CC5)C[C@H]4/C=C\CCCCC[C@H](Nc4ccccc4)C(=O)N3C1)n2C(C)C [Compound 271] | 10 to 100 | < 10 | –
24 | CC(C)n1c(O[C@@H]2C[C@H]3C(=O)N[C@]4(C(=O)NS(=O)(=O)N(C)C)C[C@H]4/C=C\CCCCC[C@H](NC(=O)OC(C)(C)C)C(=O)N3C2)nc2c(-c3csc(N4CCCCC4)n3)cccc21 [Compound 1742] | 10 to 100 | < 10 | –
25 | CC(C)n1c(O[C@@H]2C[C@H]3C(=O)N[C@]4(C(=O)NS(=O)(=O)C5CC5)C[C@H]4/C=C\CCCCC[C@H](NC(=O)OC(C)(C)C)C(=O)N3C2)nc2c(-c3cccs3)cccc21 [Compound 213] | < 10 | < 10 | –
26 | CC(C)n1c(O[C@@H]2C[C@H]3C(=O)N[C@]4(C(=O)NS(=O)(=O)N(C)C)C[C@H]4/C=C\CCCCC[C@H](NC(=O)OC(C)(C)C)C(=O)N3C2)nc2c(-c3nc(Cc4ccccc4)cs3)cccc21 [Compound 1768] | < 10 | < 10 | –
27 | Cc1sc(-c2cccc3c2nc(O[C@@H]2C[C@H]4C(=O)N[C@]5(C(=O)NS(=O)(=O)C6(C)CC6)C[C@H]5/C=C\CCCCC[C@H](NC(=O)OC(C)(C)C)C(=O)N4C2)n3C(C)C)nc1C(C)(C)C [Compound 1208] | 10 to 100 | < 10 | –
28 | CC(C)n1c(O[C@@H]2C[C@H]3C(=O)N[C@]4(C(=O)NS(=O)(=O)C5(C)CC5)C[C@H]4/C=C\CCCCC[C@H](NC(=O)OC(C)(C)C)C(=O)N3C2)nc2c(-c3nc(Cc4cc(F)cc(F)c4)cs3)cccc21 [Compound 1722] | 10 to 100 | < 10 | –
29 | CNC(=O)c1cccc2c1nc(O[C@@H]1C[C@H]3C(=O)N[C@]4(C(=O)NS(=O)(=O)C5(C)CC5)C[C@H]4/C=C\CCCCC[C@H](Nc4ccccc4)C(=O)N3C1)n2C(C)C [Compound 269] | 10 to 100 | < 10 | –
30 | COc1ccc2c(O[C@@H]3C[C@H]4C(=O)N[C@]5(C(=O)NS(=O)(=O)C6(C)CC6)C[C@H]5/C=C\CCCCC[C@H](Nc5cccc(C(=O)N6CCN(C(C)c7ccccc7)CC6)c5)C(=O)N4C3)cc(-c3nc(C(C)C)cs3)nc2c1C (some centres unmarked) [Compound 116] | 10 to 100 | < 10 | –
31 | COc1ccc2c(O[C@@H]3C[C@H]4C(=O)N[C@]5(C(=O)NS(=O)(=O)C6(C)CC6)C[C@H]5/C=C\CCCCC[C@H](Nc5cccc(C(=O)N6CCN(CCO)CC6)c5)C(=O)N4C3)cc(-c3nc(C(C)C)cs3)nc2c1C [Compound 117] | < 10 | < 10 | –
32 | CC1(S(=O)(=O)NC(=O)[C@@]23C[C@H]2/C=C\CCCCC[C@H](Nc2cccc(F)c2)C(=O)N2C[C@H](O)C[C@H]2C(=O)N3)CC1 [Compound 1003] | 10 to 100 | > 100 | –
33 | COc1ccc2c(O[C@@H]3C[C@H]4C(=O)N[C@]5(C(=O)NS(=O)(=O)C6(C)CC6)C[C@H]5/C=C\CCCCC[C@H](Nc5ccc(F)c(OC(F)(F)F)c5)C(=O)N4C3)cc(-c3nc(C(C)C)cs3)nc2c1C (single isomer, unassigned) [Compound 601] | < 10 | < 10 | –
34 | CC(C)c1csc(-c2cccc3c2nc(O[C@@H]2C[C@H]4C(=O)N[C@]5(C(=O)NS(=O)(=O)C6(C)CC6)C[C@H]5/C=C\CCCCC[C@H](NC(=O)OC5C[C@@H]6C[C@@H]6C5)C(=O)N4C2)n3C(C)C)n1 (some centres unmarked) [Compound 1411] | 10 to 100 | – | –
35 | CC(C)n1c(O[C@@H]2C[C@H]3C(=O)N[C@]4(C(=O)NS(=O)(=O)N(C)C)C[C@H]4/C=C\CCCCC[C@H](NC(=O)OC(C)(C)C)C(=O)N3C2)nc2c(-c3cccnc3)cccc21 [Compound 1738] | < 10 | – | –
